In patent publication US7060673B2, “Fusion peptide of human parathyroid hormone derived peptide and tat peptide, preparation thereof, and skin slimming cosmetic composition comprising the same” (LG Household and Health Care Ltd., priority 2001, dated 2006):

Legend:
[1] = system: 3T3-L1 cell differentiated into adipocyte; test: Lipolysis effects test (glycerol secretion by differentiated adipocytes); details: 24 hours, absorbency at 540 nm
[2] = system: healthy adult women with local obesity or cellulite inside of a thigh; details: O/W emulsion coated on one leg for one month, control emulsion on the other leg; 5 women
Procedure: In order to examine slimming effects, clinical tests were conducted on 5 healthy adult women of ages 18˜46 with local obesity or cellulite inside of a thigh (Method of testing primary irritant substances 38(187): pp1500–1541).
The fusion peptide prepared in Example 1 was prepared in the form of an O/W emulsion and used in the test. A control (O/W emulsion without sample) was coated on one leg, and an O/W emulsion comprising the compound of Chemical Formula 1 of the present invention was coated on the other leg, for one month, and then the thickness of the lipid layer was quantified.

Molecule | Lipolysis increase rate (%) ([1]; concentration 10^−5 M) | Lipolysis increase rate (%) ([1]; concentration 10^−6 M) | Lipolysis increase rate (%) ([1]; concentration 10^−7 M) | Lipolysis increase rate (%) ([1]; concentration 10^−8 M) | lipid layer decrease [2] [%] | Lipolysis increase rate (%) ([1]; concentration 10^−5 M, listed as compound represented by the Chemical Formula 1)
CC(C)NCC(O)c1ccc(O)c(O)c1 (stereo not shown) [Isoproterenol, isoproterenol, reference compound] | 12.5 | 39.0 | 34.5 | 17.3 | – | –
KKKKKKKKKGKH | 43.4 | 10.3 | 17.4 | 8.6 | 18 | 43
